Results published in paper PMC9281440, “In Vivo Distribution and Therapeutic Efficacy of Radioiodine-Labeled pH-Low Insertion Peptide Variant 3 in a Mouse Model of Breast Cancer” (Molecular Imaging, 2022).
Read-outs that look alike come from different tables or passages of the source. Peptide text beside a SMILES is read from it.

How the values were obtained:
[1] = In vitro stability of radiolabeled peptides in PBS at room temperature; format: physicochemical; details: room temperature (25°C), PBS buffer, radiochemical purity, thin-layer chromatography
Protocol: (§1) WT-pHLIP and Var3-pHLIP were labeled with ^125I for in vivo imaging experiments, and Var3-pHLIP was labeled with ^131I for therapeutic efficacy experiments. Radioactive iodine binds to tyrosine residues in pHLIPs. Peptides were dissolved in 200 μL of 0.02 M PBS (pH 7.4) to reach a concentration of 1 mg/mL and mixed with 10 μL of Na^125I (74 MBq) or 20 μL of Na^131I (925 MBq). Chloramine-T (20 μL, 5 mg/mL) was added to the test tubes and mixed for 70 s at room temperature. The reaction was stopped by adding 200 μL of sodium metabisulfite (5 mg/mL). The peptides were eluted in ethanol through a C18 column equilibrated with 20 mL of 100% ethanol and 20 mL of distilled water. The radioactive purity of ^125I-WT-pHLIP, ^125I-Var3-pHLIP, and ^131I-Var3-pHLIP was determined using thin-layer chromatography. Furthermore, the radiochemical purity of ^125I-WT-pHLIP, ^125I-Var3-pHLIP, and ^131I-Var3-pHLIP was measured, and chemical stability was determined at 24 and 48 h at room temperature (25°C) in PBS and at 37°C in serum.

[2] = Micro-SPECT/CT imaging and distribution of 125I-labeled pHLIPs; format: in vivo, mouse; details: female, mouse, total radioactivity, 3.7 MBq iv, micro-SPECT/CT ROI, mean ± SD, n = 4; for tissue uptake at 1 h: 1 h pi; for tissue uptake at 2 h: 2 h pi; for tissue uptake at 4 h: 4 h pi; for tissue uptake at 24 h: 24 h pi; for tissue uptake at 48 h: 48 h pi
Protocol: Five-week-old female athymic BALB/c nude mice (Shanghai Slaccas Experiment Animal Corp., Shanghai, China) were used in our study. Mouse xenograft models of MDA-MB-231, 4T1, and SK-BR-3 cells were produced by the subcutaneous injection of 5 × 10^6 cells (suspended in 150 μL PBS) into the right axilla of each mouse. The mice were used in subsequent experiments when tumor diameter reached 0.5-0.9 cm. The study protocol was approved by the institutional review board and by the Experimental Animal Center of Ruijin Hospital affiliated to the School of Medicine of Shanghai Jiao Tong University.
Three days before micro-SPECT/CT imaging, 300 μL of 1% Kl solution was administered to mice by oral gavage once a day, and 0.1% Kl was added into the drinking water to block thyroid gland activity. Mice-bearing MDA-MB-231, 4T1, or SK-BR-3 tumors were intravenously injected with 3.7 MBq of ^125I-WT-pHLIP or ^125I-Var3-pHLIP. Each group contained four mice. The mice were anesthetized by isoflurane inhalation, placed in the prone position, and scanned using a four-head SPECT/CT system (U-SPECT/CT, MI-Lab, Netherlands) and dedicated multipinhole apertures with a diameter of 1.5 mm at 1, 2, 4, 24, and 48 h after injection of ^125I-labeled peptides. CT images were acquired after static SPECT imaging (10 min/frame). The images were reconstructed using U-SPECT REC software and analyzed using PMOD software version 3.9 (Switzerland). Regions of interest (ROIs) were drawn in the tumors and organs, including the brain, heart, liver, lungs, kidneys, intestine, and bladder, at various time points. The radioactivity per gram (ID%/g) in the ROIs was measured to obtain the dynamic tumor-to-background ratio (TBR, muscle tissue was used as the background) and the in vivo distribution and kinetics of ^125I-WT-pHLIP and ^125I-Var3-pHLIP in the xenograft models of BC.

[3] = In vitro stability of radiolabeled peptides in serum at 37°C; format: in vitro ADME; details: 37°C in serum, radiochemical purity, thin-layer chromatography
Protocol: as §1

[4] = BALB/c nude, bladder, MDA-MB-231 tumor-bearing nude mice, read-out: Distribution, Bladder
[5] = BALB/c nude, intestine, MDA-MB-231 tumor-bearing nude mice, read-out: Distribution, Intestine
[6] = BALB/c nude, muscle, MDA-MB-231 tumor-bearing nude mice, read-out: Distribution, Muscle
[7] = BALB/c nude, MDA-MB-231 tumor-bearing nude mice, read-out: Distribution, Tumor
[8] = BALB/c nude, SK-BR-3 tumor-bearing nude mice, read-out: Distribution, Tumor
[9] = athymic BALB/c nude, bladder, SK-BR-3 tumor-bearing nude mice, read-out: Distribution, Bladder
[10] = athymic BALB/c nude, brain, MDA-MB-231 tumor-bearing nude mice, read-out: Distribution, Brain
[11] = athymic BALB/c nude, brain, SK-BR-3 tumor-bearing nude mice, read-out: Distribution, Brain
[12] = athymic BALB/c nude, heart, MDA-MB-231 tumor-bearing nude mice, read-out: Distribution, Heart
[13] = athymic BALB/c nude, heart, SK-BR-3 tumor-bearing nude mice, read-out: Distribution, Heart
[14] = athymic BALB/c nude, intestine, SK-BR-3 tumor-bearing nude mice, read-out: Distribution, Intestine
[15] = athymic BALB/c nude, kidney, MDA-MB-231 tumor-bearing nude mice, read-out: Distribution, Kidney
[16] = athymic BALB/c nude, kidney, SK-BR-3 tumor-bearing nude mice, read-out: Distribution, Kidney
[17] = athymic BALB/c nude, liver, MDA-MB-231 tumor-bearing nude mice, read-out: Distribution, Liver
[18] = athymic BALB/c nude, liver, SK-BR-3 tumor-bearing nude mice, read-out: Distribution, Liver
[19] = athymic BALB/c nude, lung, MDA-MB-231 tumor-bearing nude mice, read-out: Distribution, Lung
[20] = athymic BALB/c nude, lung, SK-BR-3 tumor-bearing nude mice, read-out: Distribution, Lung
[21] = athymic BALB/c nude, muscle, SK-BR-3 tumor-bearing nude mice, read-out: Distribution, Muscle

stability ([1]; 24 h): > 95%
stability ([1]; 48 h): > 90%
tissue uptake at 1 h [2, 4]: 20.6 ± 5.71 %ID/g
tissue uptake at 2 h [2, 4]: 24.8 ± 3.51 %ID/g
tissue uptake at 4 h [2, 4]: 31.6 ± 15.9 %ID/g
tissue uptake at 24 h [2, 4]: 2.14 ± 0.88 %ID/g
tissue uptake at 48 h [2, 4]: 0.45 ± 0.14 %ID/g
tissue uptake at 1 h ([2]; BALB/c nude, brain, MDA-MB-231 tumor-bearing nude mice, read-out: Distribution, Brain): 1.02 ± 0.08 %ID/g
tissue uptake at 1 h [2, 5]: 2.59 ± 0.5 %ID/g
tissue uptake at 2 h [2, 5]: 3.18 ± 0.35 %ID/g
tissue uptake at 4 h [2, 5]: 2.12 ± 0.33 %ID/g
tissue uptake at 24 h [2, 5]: 0.2 ± 0.09 %ID/g
tissue uptake at 48 h [2, 5]: 0.1 ± 0.06 %ID/g
tissue uptake at 1 h [2, 6]: 1.12 ± 0.28 %ID/g
tissue uptake at 2 h [2, 6]: 0.96 ± 0.32 %ID/g
tissue uptake at 4 h [2, 6]: 0.67 ± 0.21 %ID/g
tissue uptake at 24 h [2, 6]: 0.09 ± 0.03 %ID/g
tissue uptake at 48 h [2, 6]: 0.04 ± 0.01 %ID/g
tissue uptake at 1 h [2, 7]: 3.16 ± 0.67 %ID/g
tissue uptake at 2 h [2, 7]: 3.76 ± 0.37 %ID/g
tissue uptake at 4 h [2, 7]: 3.09 ± 0.44 %ID/g
tissue uptake at 24 h [2, 7]: 0.47 ± 0.12 %ID/g
tissue uptake at 48 h [2, 7]: 0.22 ± 0.07 %ID/g
tissue uptake at 2 h [2, 8]: 2.94 ± 0.71 %ID/g
tissue uptake at 4 h [2, 8]: 2.45 ± 0.32 %ID/g
tissue uptake at 24 h [2, 8]: 0.26 ± 0.06 %ID/g
tissue uptake at 48 h [2, 8]: 0.18 ± 0.06 %ID/g
tissue uptake at 1 h [2, 9]: 18.2 ± 4.14 %ID/g
tissue uptake at 2 h [2, 9]: 18.7 ± 15.6 %ID/g
tissue uptake at 4 h [2, 9]: 23.4 ± 6.56 %ID/g
tissue uptake at 24 h [2, 9]: 2.44 ± 2.14 %ID/g
tissue uptake at 48 h [2, 9]: 0.21 ± 0.21 %ID/g
tissue uptake at 2 h [2, 10]: 1.13 ± 0.12 %ID/g
tissue uptake at 4 h [2, 10]: 0.75 ± 0.27 %ID/g
tissue uptake at 24 h [2, 10]: 0.13 ± 0.07 %ID/g
tissue uptake at 48 h [2, 10]: 0.09 ± 0.05 %ID/g
tissue uptake at 1 h [2, 11]: 1.02 ± 0.07 %ID/g
tissue uptake at 2 h [2, 11]: 0.95 ± 0.07 %ID/g
tissue uptake at 4 h [2, 11]: 0.68 ± 0.2 %ID/g
tissue uptake at 24 h [2, 11]: 0.09 ± 0.02 %ID/g
tissue uptake at 48 h [2, 11]: 0.09 ± 0.01 %ID/g
tissue uptake at 1 h [2, 12]: 9.47 ± 1.54 %ID/g
tissue uptake at 2 h [2, 12]: 8.29 ± 0.52 %ID/g
tissue uptake at 4 h [2, 12]: 5.35 ± 0.93 %ID/g
tissue uptake at 24 h [2, 12]: 0.39 ± 0.13 %ID/g
tissue uptake at 48 h [2, 12]: 0.14 ± 0.05 %ID/g
tissue uptake at 1 h [2, 13]: 10.3 ± 0.54 %ID/g
tissue uptake at 2 h [2, 13]: 8.89 ± 0.18 %ID/g
tissue uptake at 4 h [2, 13]: 6.02 ± 1.35 %ID/g
tissue uptake at 24 h [2, 13]: 0.38 ± 0.08 %ID/g
tissue uptake at 48 h [2, 13]: 0.1 ± 0.02 %ID/g
tissue uptake at 1 h [2, 14]: 3.05 ± 0.68 %ID/g
tissue uptake at 2 h [2, 14]: 3.01 ± 0.26 %ID/g
tissue uptake at 4 h [2, 14]: 2.38 ± 0.68 %ID/g
tissue uptake at 24 h [2, 14]: 0.31 ± 0.14 %ID/g
tissue uptake at 48 h [2, 14]: 0.07 ± 0.04 %ID/g
tissue uptake at 1 h [2, 15]: 5.66 ± 2.26 %ID/g
tissue uptake at 2 h [2, 15]: 5.61 ± 0.71 %ID/g
tissue uptake at 4 h [2, 15]: 3.8 ± 0.89 %ID/g
tissue uptake at 24 h [2, 15]: 0.41 ± 0.04 %ID/g
tissue uptake at 48 h [2, 15]: 0.25 ± 0.13 %ID/g
tissue uptake at 1 h [2, 16]: 6.67 ± 1.07 %ID/g
tissue uptake at 2 h [2, 16]: 4.24 ± 0.97 %ID/g
tissue uptake at 4 h [2, 16]: 3.56 ± 0.65 %ID/g
tissue uptake at 24 h [2, 16]: 0.42 ± 0.11 %ID/g
tissue uptake at 48 h [2, 16]: 0.18 ± 0.1 %ID/g
tissue uptake at 1 h [2, 17]: 10.3 ± 1.33 %ID/g
tissue uptake at 2 h [2, 17]: 10.2 ± 0.66 %ID/g
tissue uptake at 4 h [2, 17]: 8.11 ± 1.63 %ID/g
tissue uptake at 24 h [2, 17]: 1 ± 0.54 %ID/g
tissue uptake at 48 h [2, 17]: 0.4 ± 0.22 %ID/g
tissue uptake at 1 h [2, 18]: 11.4 ± 0.87 %ID/g
tissue uptake at 2 h [2, 18]: 10.4 ± 1.6 %ID/g
tissue uptake at 4 h [2, 18]: 11.4 ± 2.75 %ID/g
tissue uptake at 24 h [2, 18]: 0.81 ± 0.2 %ID/g
tissue uptake at 48 h [2, 18]: 0.23 ± 0.02 %ID/g
tissue uptake at 1 h [2, 19]: 9.64 ± 0.8 %ID/g
tissue uptake at 2 h [2, 19]: 9.1 ± 0.61 %ID/g
tissue uptake at 4 h [2, 19]: 6.6 ± 0.88 %ID/g
tissue uptake at 24 h [2, 19]: 0.49 ± 0.22 %ID/g
tissue uptake at 48 h [2, 19]: 0.18 ± 0.05 %ID/g
tissue uptake at 1 h [2, 20]: 9.81 ± 0.82 %ID/g
tissue uptake at 2 h [2, 20]: 9.31 ± 1.03 %ID/g
tissue uptake at 4 h [2, 20]: 6.93 ± 1.24 %ID/g
tissue uptake at 24 h [2, 20]: 0.42 ± 0.12 %ID/g
tissue uptake at 48 h [2, 20]: 0.14 ± 0.05 %ID/g
tissue uptake at 1 h [2, 21]: 1.33 ± 0.3 %ID/g
tissue uptake at 2 h [2, 21]: 1.21 ± 0.26 %ID/g
tissue uptake at 4 h [2, 21]: 0.7 ± 0.12 %ID/g
tissue uptake at 24 h [2, 21]: 0.06 ± 0.02 %ID/g
tissue uptake at 48 h [2, 21]: 0.04 ± 0.02 %ID/g
tissue uptake at 1 h ([2]; athymic BALB/c nude, SK-BR-3 tumor-bearing nude mice, read-out: Distribution, Tumor): 2.68 ± 1.34 %ID/g
stability ([3]; 24 h): 83.2%
stability ([3]; 48 h): 82.6%
Compound: CC(C)C[C@H](NC(=O)[C@H](Cc1ccc(O)c(I)c1)NC(=O)[C@H](C)NC(=O)[C@H](CCCNC(=N)N)NC(=O)[C@H](Cc1c[nH]c2ccccc12)NC(=O)[C@@H]1CCCN1C(=O)[C@H](CC(N)=O)NC(=O)[C@H](CCC(N)=O)NC(=O)[C@H](CC(=O)O)NC(=O)[C@H](CC(=O)O)NC(=O)[C@H](CS)NC(=O)[C@H](C)N)C(=O)N[C@@H](CC(=O)O)C(=O)N[C@@H](CC(C)C)C(=O)N[C@@H](CC(C)C)C(=O)N[C@@H](Cc1ccccc1)C(=O)N1CCC[C@H]1C(=O)N[C@H](C(=O)N[C@@H](CC(=O)O)C(=O)N[C@H](C(=O)N[C@@H](CC(C)C)C(=O)N[C@@H](CC(C)C)C(=O)N[C@@H](CC(C)C)C(=O)N[C@@H](CC(=O)O)C(=O)N[C@@H](CC(C)C)C(=O)N[C@@H](CC(C)C)C(=O)N[C@@H](Cc1c[nH]c2ccccc12)C(=O)N[C@@H](CCCCN)C(=O)O)[C@@H](C)O)[C@@H](C)O [125I-Var3-pHLIP] (HELM PEPTIDE1{A.C.D.D.Q.N.P.W.R.A.[O=C([C@H](Cc1ccc(O)c(I)c1)N[*:1])[*:2]].L.D.L.L.F.P.T.D.T.L.L.L.D.L.L.W.K}$$$$V2.0; N-terminus and C-terminus assumed)
